We go through 17 compounds from patent US20210052473A1, “COMPOSITION FOR REMOVING ALDEHYDE-BASED ODORS AND REACTIVE OXYGEN SPECIES” (Osteon Co. Ltd., priority 2019, published 2021).

The test in a line: Deodorization performance: anisidine value (p-AV) by ultraviolet spectrometry after reaction with 0.2% 2-nonenal isooctane standard solution. To be noted: 20 ml 0.2% 2-nonenal isooctane solution (v/v) stirred 30 minutes with 20 ml composition; lower value = less aldehyde; Table 5. The protocol:
At this time, 0.2% 2-nonenal isooctane solution (v/v) was used as a standard solution to determine the deodorizing performance. 2-Nonenal is a typical aldehyde compound generated by the oxidation of unsaturated fatty acids in human skin. […] The deodorizing performance of the deodorizing substances was determined by measuring the anisidine values (p-AV).
On to `O=S([O-])O.[Na+]` [Comparative Example 1, Sodium bisulfite], for which the “Anisidine value (p-AV)” value was determined as 33.28.

Take `O=S([O-])O.[K+]` [Comparative Example 2, Potassium bisulfite]: the “Anisidine value (p-AV)” value was found to be 33.23.

Turning to `O=S([O-])O.[Li+]` [Comparative Example 3, Lithium bisulfite], the “Anisidine value (p-AV)” value was found to be 34.65.

As to `O=S([O-])S(=O)(=O)[O-].[Na+].[Na+]` [Comparative Example 4, Sodium metabisulfite], the “Anisidine value (p-AV)” value was found to be 34.48.

With `O=S([O-])S(=O)(=O)[O-].[K+].[K+]` [Comparative Example 5, Potassium metabisulfite], the “Anisidine value (p-AV)” value turned out to be 33.10.

As to `O=S([O-])S(=O)(=O)[O-].[Na+].[Na+]` [Comparative Example 6, Sodium metabisulfite], the “Anisidine value (p-AV)” value turned out to be 35.36.

Take `O=S([O-])S(=O)(=O)[O-].[Li+].[Li+]` [Comparative Example 7, Lithium metabisulfite]: the “Anisidine value (p-AV)” value is 34.27.

Turning to `O=S([O-])S(=O)[O-].[Na+].[Na+]` [Comparative Example 8, Sodium hydrosulfite], the “Anisidine value (p-AV)” value is recorded as 34.39.

Turning to `O=S([O-])S(=O)[O-].[K+].[K+]` [Comparative Example 9, Potassium hydrosulfite], the “Anisidine value (p-AV)” value is on record as 34.10.

As to `O=S([O-])S(=O)[O-].[Li+].[Li+]` [Comparative Example 10, Lithium hydrosulfite], the “Anisidine value (p-AV)” value is on record as 33.98.

Turning to `Nc1ccnc(=O)[nH]1` [Comparative Example 13, Cytosine], the “Anisidine value (p-AV)” value is 37.21.

Consider `Cc1c[nH]c(=O)[nH]c1=O` [Comparative Example 14, Thymine], for which the “Anisidine value (p-AV)” value is 36.54.

On to `Nc1ncnc2nc[nH]c12` [Comparative Example 15, Adenine], for which the “Anisidine value (p-AV)” value was found to be 36.23.

With `Nc1nc2nc[nH]c2c(=O)[nH]1` [Comparative Example 16, Guanine], the “Anisidine value (p-AV)” value was found to be 38.45.

On to `NCCCC[C@H](N)C(=O)O` [Comparative Example 17, Lysine], for which the “Anisidine value (p-AV)” value was 34.56.

Regarding `N=C(N)NCCC[C@H](N)C(=O)O` [Comparative Example 18, Arginine], the “Anisidine value (p-AV)” value stood at 38.41.

Regarding `N[C@@H](Cc1c[nH]cn1)C(=O)O` [Comparative Example 19, Histidine], the “Anisidine value (p-AV)” value is on record as 38.09.
